From US20080090780A1, “Storage stable azadirachtin pesticide formulation” (PBI/GORDON CORPORATION, priority 2006, published 2008) come the findings set out here.

For series [1], the system named is potato aphids. Briefly: Greenhouse tests on live potato aphids on tomatoes. Type of series: in vivo. The following applies: Azadirachtin 0.0008 lbs/gal, bifenthrin 0.005 lbs/gal, combination as labelled.
The format of series [2] is physicochemical. The following applies: for % Decomposition of AZA A and PYR: JeffSol AG-1555, Triton X-100; for loss of AZA A: AZA alone without incorporation of a PYR (Table 2). The text has this:
This invention relates to a storage stable, efficacious pesticide formulation dilutable by the user that contains azadirachtin made up of azadirachtin A and azadirachtin B, a pyrethrin or pyrethroid, a solvent, and an emulsifier. The pyrethrin or pyrethroid complexes with and minimizes decomposition of the azadirachtin A. An amount of the pyrethrin or pyrethroid is incorporated to form a complex with the azadirachtin A on opposite sides of the molecular structure thereof. […] Preferably, an aprotic heterocyclic or mono, di-, or polycyclic aromatic solvent is provided having C2-C25 carbon atoms and that is compatible with the azadirachtin A and pyrethrin or pyrethroid. In addition, a non-ionic emulsifier is preferably included in the formulation.
When a PYR was added to AZA A, the decomposition pathway of AZA A was stabilized, as shown by Table 2.
FIG. 1 is a plot of the percent AZA A decomposition on the Y-axis, as compared with the mole ratio of bifenthrin/AZA A on the X-axis, under an accelerated aging test of 30 days at 40° C. The loss of AZA A decreased as the mole ratio of PYR to AZA A approached 2:1, where the PYR was present in an amount to form a complex with the AZA A on opposite sides of the molecular structure thereof and sufficient to prevent further decomposition of the AZA A.
FIG. 3 compares the percent of AZA A decomposition on the Y-axis with the mole ratio of zeta cypermethrin to AZA A on the X-axis, also under an accelerated aging test of 30 days at 40° C.

Series [3] is described as follows: Azadirachtin stability tests in seed oil carrier (soybean oil / Tween 85 containing 5% water). The series is classed as physicochemical. The note with it: Soybean Oil (50% Seed Oil/50% Tween 85 containing 5% water), 40° C., 32 Days. The text has this: AZA plus PYRs have been studied in conventional oil systems, such as soybean oil, canola oil, methylated soybean oil, epoxidized soybean oil, rape seed oil, and olive oil, all of which contained an emulsifier having as much as 5% of water. None of these oils in combination with the PYR stabilized the AZA A in the formulation, largely because of the presence of moisture in the emulsifier. When AZA is combined with PYR and the types of solvents and emulsifiers disclosed herein, the AZA A of the formulation is stabilized. Table 9 records test results of AZA+soybean oil as compared with AZA+PYR+soybean oil.

The mark [4] stands for this setting: Azadirachtin A/B 0.50% + Bifenthrin 2.01%, 1 Month/40° C.
Setting [5] is: Azadirachtin A/B 0.50% + Bifenthrin 2.01%, 1 Month/Ambient.
The mark [6] stands for this setting: Azadirachtin A/B 1.50% + 1.50% second active, 1 Month/40° C.
The mark [7] stands for this setting: Azadirachtin A/B 1.50% + 1.50% second active, 1 Month/Ambient.
Setting [8] is: Azadirachtin A/B 1.75% + Bifenthrin 1.00%, 1 Month/40° C.
The mark [9] stands for this setting: Azadirachtin A/B 2.00% + Bifenthrin 0.50%, 1 Month/40° C.

Like-named read-outs stand apart in the source and are kept apart here.

With `Cc1c(COC(=O)[C@@H]2[C@H](/C=C(\Cl)C(F)(F)F)C2(C)C)cccc1-c1ccccc1` (racemic) [Bifenthrin, bifenthrin], the “Live potato aphids on tomatoes (aphid mean numbers)” value was 357 a in series [1] (0 DAT1); 162 b in series [1] (0 DAT2); 131 b in series [1] (3 DAT1); 89 b in series [1] (3 DAT2); 179 b in series [1] (7 DAT1); 64 b in series [1] (7 DAT2). In addition, the “% Decomposition of AZA A and PYR” value in series [2] (setting [4]) is on record as −2.67%; in series [2] (setting [5]), −2.42%; in series [2] (setting [6]), −2.96%; in series [2] (setting [7]), −2.82%; in series [2] (setting [8]), −2.21%; in series [2] (setting [9]), −0.82%. Moreover, the “% Decomposition of AZA A and PYR” value in series [2] (Bifenthrin only 3.01% AI, 1 Month/40° C.) is −2.54%.

In the case of `C/C=C(\C)C(=O)O[C@H]1C[C@@H](OC(C)=O)[C@@]2(C(=O)OC)CO[C@@H]3C2[C@]12CO[C@@](O)(C(=O)OC)[C@H]2[C@](C)(C12OC1(C)C1C[C@H]2O[C@@H]2OC=CC12O)[C@@H]3O` (stereo partly drawn) [AZA A, azadirachtin A], the “loss of AZA A (percent of AZA A decomposition)” value in series [2] (1:1 mole ratio zeta cypermethrin to AZA A, accelerated aging test of 30 days at 40° C., FIG. 3) came out at 1%. Besides, the “loss of AZA A” value in series [2] is on record as “more than 12%”.

Regarding azadirachtin [Azadirachtin A/B], the “Live potato aphids on tomatoes (aphid mean numbers)” value in series [1] (0 DAT1) is reported as 338 a; in series [1] (0 DAT2), 11 c; in series [1] (3 DAT1), 120 b; in series [1] (3 DAT2) it was 3 c; in series [1] (7 DAT1), 18 c; in series [1] (7 DAT2) it was 1 c. Also, the “AZA A Stability in Formulation” value is on record as −54.27% in series [3] (AZA A/B 0.50% + Bifenthrin 2.00%), −52.62% in series [3] (AZA A/B 0.50% + Permethrin 2.00%), −48.25% in series [3] (AZA A/B 0.50% + Z-Cypermethrin 2.00%) and −27.02% in series [3] (AZA A/B 3.00% alone). For the same molecule, the “loss of AZA A” value in series [2] is 12.64%. The “% Decomposition of AZA A and PYR” value in series [2] (setting [4]) was −4.30%; in series [2] (setting [5]) it was −1.03%; in series [2] (setting [6]), −4.20%; in series [2] (setting [7]), −0.14%; in series [2] (setting [8]), −7.37%; in series [2] (setting [9]) it was −7.61%. The “% Decomposition of AZA A and PYR” value in series [2] (Azadirachtin A/B only 3.01% AI, 1 Month/40° C.) is recorded as −12.64%.
